From patent publication US6013768A, “Kainate-binding human CNS receptors of the EAA1 family” (priority 1997, dated 2000) come the findings set out here.

The target of this assay is T1, human EAA1a receptor (Homo sapiens, UniProt Q16099).
T1 construct: expressed in transfected cells; host or cells: COS-1 (ATCC CRL 1650), transient expression, plasmid pcDNA1/humEAA1a
T1 sequence (Q16099 21-956): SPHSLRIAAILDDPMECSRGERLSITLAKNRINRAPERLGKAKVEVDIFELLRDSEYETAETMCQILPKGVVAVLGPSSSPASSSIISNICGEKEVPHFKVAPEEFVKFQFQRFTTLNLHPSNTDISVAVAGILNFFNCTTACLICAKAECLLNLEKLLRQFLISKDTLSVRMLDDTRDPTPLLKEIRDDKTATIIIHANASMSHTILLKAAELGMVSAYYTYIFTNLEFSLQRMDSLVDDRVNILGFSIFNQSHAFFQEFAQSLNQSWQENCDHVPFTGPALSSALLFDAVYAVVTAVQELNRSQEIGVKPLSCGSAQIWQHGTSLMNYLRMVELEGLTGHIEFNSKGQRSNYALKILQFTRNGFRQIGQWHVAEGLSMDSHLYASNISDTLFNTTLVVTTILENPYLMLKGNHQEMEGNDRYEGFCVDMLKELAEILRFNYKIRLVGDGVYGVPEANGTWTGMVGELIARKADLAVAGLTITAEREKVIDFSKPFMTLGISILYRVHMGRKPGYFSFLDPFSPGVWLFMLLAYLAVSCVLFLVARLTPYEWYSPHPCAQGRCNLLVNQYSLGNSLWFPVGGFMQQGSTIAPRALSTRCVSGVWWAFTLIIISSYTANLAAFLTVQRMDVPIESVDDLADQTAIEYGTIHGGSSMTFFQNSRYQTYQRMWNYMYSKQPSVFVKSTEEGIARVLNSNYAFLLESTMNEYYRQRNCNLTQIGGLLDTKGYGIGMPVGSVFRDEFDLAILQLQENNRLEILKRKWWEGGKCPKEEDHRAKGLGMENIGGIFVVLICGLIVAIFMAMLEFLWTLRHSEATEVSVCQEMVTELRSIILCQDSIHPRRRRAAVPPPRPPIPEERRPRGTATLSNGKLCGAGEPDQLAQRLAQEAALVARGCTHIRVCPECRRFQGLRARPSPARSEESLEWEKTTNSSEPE
The experiment in a line: kainate binding assay, membranes of EAA1a-producing COS cells.

Protocol: Transfected cells in the frozen state were resuspended in ice-cold distilled water using a hand homogenizer and centrifuged for 20 minutes at 50,000 g. The supernatant was discarded and the membrane pellet stored frozen at -70° C.
COS cell membrane pellets were suspended in ice cold 50 mM Tris-HCl (pH 7.55, 5° C.) and placed inside Spectrapor 7 (EDTA-treated, sulfur-free) dialysis tubing. The suspension was placed in 4 liters of ice cold 50 mM Tris-HCl (pH 7.55, 5° C.) and dialyzed for 16-24 hours at 5° C. in order to remove endogenous glutamate that would compete for binding. The tissue suspension was recovered from the tubing along with a small volume of buffer used to rinse the tubing. This resultant membrane preparation was used as tissue source for binding experiments described below.
Binding assays were then performed, using an amount of COS-derived membrane equivalent to from 25-100 μg as judged by protein determination and selected radiolabelled ligand.
For kainate binding assays, incubation mixtures consisted of 25-100 μg tissue protein and [vinylidene-^3 H] kainic acid (58 Ci/mmole, 5 nM final) in the cold incubation buffer, 1 ml final volume. Non-specific binding was in the presence of 1 mM L-glutamate. […] Filters were washed twice in 6 ml of the cold incubation buffer, then placed in scintillation vials with 5 ml of Beckman Ready-Safe scintillation cocktail for counting.

In the case of `C=C(C)[C@H]1CN[C@H](C(=O)O)[C@H]1CC(=O)O` [kainate], under “EAA1a-producing COS cell membranes, high affinity category i.e. nanomolar range”, the kainate binding affinity entry was “high affinity”. For the same molecule, the “specific binding of labelled kainate” value ([3H]-kainate 5 nM labelled ligand, COS cell membranes, non-specific binding with 1 mM L-glutamate, FIG. 5) is “specific [^3 H]-kainate binding”.
